Data on 1 compound can be found in paper PMC10603899, “Reproducibility and Robustness of a Liver Microphysiological System PhysioMimix LC12 under Varying Culture Conditions and Cell Type Combinations” (Bioengineering, 2023).

The test system of data set [1] is PHH (TF-HU8373). Nature of the data set: Midazolam metabolism (1′-OH MDZ formation) in PhysioMimix LC-12, PHH monoculture. To be noted: PhysioMimix LC-12, PHH, 5 µM MDZ.
In data set [2] the test system is PHH (TF-HU8373). As to the kind of experiment: Midazolam metabolism (1′-OH MDZ formation) in 96-well plate, PHH. The class given is in vitro ADME, human. To be noted: day 2, incubation 24 h. As for the experimental part:
For the PHH 2D model, 96-well plates were first coated with 200 μg/mL collagen I (CB354249, Corning Inc.) and 50 μg/mL fibronectin (F1141, Sigma-Aldrich, St. Louis, MO, USA) and incubated at 37 °C, 5% CO2 for 1 h. Thawed PHHs were collected by centrifugation (100× g, 10 min), resuspended in plating media, and seeded at a density of 50,000–60,000 cells/well. After incubation overnight, the media were changed to maintenance media. The total well volume was 100 μL, and plates were incubated at 37 °C, 5% CO2, with media refreshed every 1–2 days.
After drug addition, media were collected every 2, 6, and 24 h. After 24 h, the drug treatment media were replaced with fresh maintenance media. For the experiment with pesticide mixtures, we selected chemicals from the Agency for Toxic Substances and Disease Registry Substance Priority List, which contains compounds that are commonly detected at Superfund sites and are known to be hazardous to human health. A molar-equivalent mixture was created by combining all 20 pesticides and diluting them to a final concentration of 1 or 5 μM each in dimethyl sulfoxide (DMSO, final concentration 0.5% v/v). Media was collected 48 h after treatment for the analyses detailed below. […]

Turning to `OCc1ncc2n1-c1ccc(Cl)cc1C(c1ccccc1F)=NC2` [1′-OH-midazolam, 1-hydroxymidazolam], the “1′-OH MDZ Formed, Mean ± S.D.” value is listed as 2.72 ± 1.75 pmol/min/1 M Hep in data set [1] (day 6, incubation 2 h); 0.610 ± 0.403 pmol/min/1 M Hep in data set [1] (day 6, incubation 24 h); 0.753 ± 0.612 pmol/min/1 M Hep in data set [1] (day 12, incubation 24 h); 0.163 ± 0.064 pmol/min/1 M Hep in data set [2]. Further, the “1′-OH MDZ Formed, Median” value in data set [1] (day 6, incubation 2 h) is given as 2.33 pmol/min/1 M Hep; in data set [1] (day 6, incubation 24 h), 0.561 pmol/min/1 M Hep; in data set [1] (day 12, incubation 24 h), 0.649 pmol/min/1 M Hep; in data set [2], 0.189 pmol/min/1 M Hep.
